Experimental data: PubChem BioAssay (NCI)
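Exposure lasted 48 hours, with cells grown in 96-well plates and compounds tested at five concentrations. GI50 marks 50% less growth. TGI is the concentration that stops growth completely.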

Tested on: MDA-MB-468 breast
Test: growth of human tumour cells (NCI), 48 h

SMILES | GI50 | TGI
CC(=O)[O][Hg][c]1c(N)c(C)cc(C)c1F | 1.34 µM | 2.74 µM
Cc1cc2nc(C(Cl)Cl)nc(-c3ccc(Cl)cc3)n2n1 | 0.299 µM | 1.12 µM
COc1cc2nc(-c3ccc(C(F)(F)F)cc3)cc(OCCCN3CCC(O)CC3)c2cc1OC | 1.63 µM | 11.3 µM
COC(=O)Nc1nc2ccc(S(=O)c3ccccc3)cc2[nH]1 (configuration not stated) | 1.94 µM | 8.29 µM
O=C(CN1CCN(c2cc3c(cc2F)c(=O)c(C(=O)N/N=C/c2ccccc2O)cn3C2CC2)CC1)N/N=C\c1ccccc1O | 0.599 µM | 2.96 µM
CCOC(=O)Nc1nc2ccc(OCC)cc2s1 | 2.08 µM | > 100 µM
COc1cc2c3c(n(CCCNC4CCCCC4)c(=O)c2cc1OC)-c1cc2c(cc1C3=O)OCO2 | 5.65 µM | 15.7 µM
NC(CSC(c1ccccc1)(c1ccccc1)c1ccc2c(c1)OCO2)C(=O)O (configuration not stated) | 0.254 µM | 0.672 µM
Fc1ccc(Nc2ncnc3ccc(-c4cnc5[nH]ccc5c4)cc23)cc1Cl | 0.115 µM | 0.575 µM
Cc1nc2c(nc1C)C(=O)c1ccccc1C2=O | 1.5 µM | 6.04 µM
Nc1cc2nc3ccccc3sc-2cc1=O | 3.74 µM | 16.1 µM
Oc1ccc(Cl)cc1-c1cc(-c2ccccc2Cl)[nH]n1 | 1.96 µM | 7.93 µM
C[C@@H](CS(C)(=O)=O)Nc1ncc2cc(Oc3ccc(F)cc3F)c(=O)n(C)c2n1 | > 25 µM | > 25 µM
O=C(Nc1ccc(F)cc1F)c1cc(I)ccc1O | 2.55 µM | 6.88 µM
Cc1cnc(NC(=O)C(Cc2ccccc2)NC(=O)c2ccccc2)s1 (configuration not stated) | 15.8 µM | 35.7 µM
CN(C)CCCNC1=C(Cl)C(=O)c2ccccc2C1=O | 1.59 µM | 3.33 µM
COc1ccc2c(c1)C(=O)/C(=C/c1ccc(OCC(=O)Nc3nccs3)cc1)O2 | 0.0181 µM | 0.0392 µM
COc1cc(C(=O)/C=C/c2sc(Cl)nc2Cl)cc(OC)c1OC | 1.83 µM | 3.7 µM
CCCCCCCC(=O)SCC/C=C/[C@@H]1CC(=O)NCc2cccc(n2)C2=N[C@@](C)(CS2)C(=O)N[C@@H](C(C)C)C(=O)N1 | 0.535 µM | > 33.3 µM
C=C(CNCCO)[C@@H]1CC[C@]2(CO)CC[C@]3(C)[C@H](CC[C@@H]4[C@@]5(C)CCC(N)C(C)(C)[C@@H]5CC[C@]43C)[C@@H]12 (some centres not stated) | 1.67 µM | 3.53 µM
Cn1ccnc1C(=O)/C=C/c1ccc(CC(=O)Nc2ccc(Br)cc2)cc1 | 2.7 µM | 6.62 µM

SMILES | GI50 | TGI
COc1cc2c(c(OC)c1O)C(=O)C(OC)C(c1ccc(O)c(O)c1)O2 (configuration not stated) | 0.464 µM | 33.3 µM
O=C(Nc1ccc(I)cc1)c1cc([N+](=O)[O-])ccc1O | 3.99 µM | 39.4 µM
CC(C)c1ccc(C(C)C(=O)N(CC2=C(C(C)c3ccccn3)c3ccccc3C2)C(C)C)cc1 (configuration not stated) | 2.78 µM | 41.7 µM
Cc1cc(=O)n2[nH]c(-c3ccc(C(C)(C)C)cc3)cc2n1 | 3.38 µM | 40.6 µM
COc1c2ccoc2c(/C=C/C=O)c2oc(-c3ccccc3)cc(=O)c12 | 7.02 µM | 22.2 µM
CNC(=O)c1ccccc1Nc1nc(Nc2ccc(N3CCOCC3)cc2OC)ncc1Cl | 1.49 µM | 4.32 µM
O=c1n(CC2CO2)c(=O)n(CC2CO2)n1CC1CO1 (configuration not stated) | 2.29 µM | 16.8 µM
NC1CCC(Nc2nc(NCc3ccc(-c4ccco4)nc3)c3ncn(C4CCCC4)c3n2)CC1 (configuration not stated) | 0.00841 µM | 0.0349 µM
O=C1c2ccccc2C(=O)c2sc(Nc3cccc(Cl)c3)nc21 | 1.77 µM | 3.89 µM
O=C(CCl)N1c2ccccc2Oc2ccc3ccccc3c21 | 0.973 µM | 2.45 µM
O=C1/C(=C/c2ccc([N+](=O)[O-])cc2)COc2ccc(O)c(O)c21 | 1.87 µM | 5.55 µM
COc1ccc(-c2cc(-c3ccc(Nc4nc(Nc5ccccc5)nc(Nc5ccc(Cl)cc5)n4)cc3)nc(N)c2C#N)cc1 | 1.15 µM | 3.05 µM
Clc1cccc(Cc2cn3cc(-c4ccccc4)nc3s2)c1Cl | 6.28 µM | > 100 µM
Clc1ccc2c(N/N=C/c3c[nH]c4ccccc34)ccnc2c1 | 1.01 µM | 2.45 µM
CNC(=O)c1cc(Oc2ccc3nc(NC(=O)Nc4ccc(Cl)c(C(F)(F)F)c4)sc3c2)ccn1 | 1.36 µM | 4.1 µM
COc1cc(/C=C/c2cc(/C=C/c3ccc(O)c(OC)c3)n(C(=O)Nc3ccc(F)cc3)n2)ccc1O | 1.4 µM | 5.76 µM
CCOc1ccccc1-n1c(CN2CCN(C(=O)COc3ccc(CNCCCCCCN4C5CCCC4CC(OC(=O)Nc4cc(C)ccc4OC)C5)cc3)CC2)nc2ccccc2c1=O (configuration not stated) | 0.786 µM | 2.42 µM
O=C(NCCNc1nccc(-c2c(-c3cccc(O)c3)nc3sccn23)n1)c1ccccc1O | 2.64 µM | 21 µM
Clc1ccc2oc3c(NCCCN4CCOCC4)c4ccccc4nc3c2c1 | 1.49 µM | 3.5 µM
CSc1ccccc1C#C/C=C\C#Cc1ccccc1N1CCCC1=O | 1.89 µM | 13.8 µM
